This is an account of results in PMC7044277 (Nature Communications, 2020).

One test deals with DRD3 (Homo sapiens, UniProt P35462). Put plainly: Gαi/o-mediated cAMP inhibition (GloSensor). In kind it is cell-based. Conditions: DRD3, cAMP inhibition.
The next test deals with DRD2 (D2 long receptor) (Homo sapiens, UniProt P14416). In words: Gαi/o-mediated cAMP inhibition (GloSensor split-luciferase cAMP reporter), HEK293T.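 Further: compounds applied 15 min at room temperature, then luciferin plus 400 nM isoproterenol to raise cAMP through endogenous β2-adrenergic receptors, luminescence read 15 min later.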 To be noted: DRD2. The test is classed as cell-based.
Test [1] has as its system serotonin receptor of Fig_S10h (subtype not given). Put plainly: β-arrestin2 recruitment (Tango), agonist activity, source data Fig_S10h. In kind it is cell-based, human. To be noted: drug alone. On the technique in general: Activated receptors often draw arrestin, which recruitment assays turn into a signal.
Test [2] relates to serotonin receptor of Fig_S10i (subtype not given). In words: β-arrestin2 recruitment (Tango), agonist activity, source data Fig_S10i. To be noted: drug alone. In kind it is cell-based, human.
Another test has as its target 5HT2A (Homo sapiens, UniProt P28223). Put plainly: β-arrestin2 recruitment (Tango). In kind it is cell-based. Conditions: single replicate values.
A further test concerns the target DRD5 (Homo sapiens, UniProt P21918). In words: β-arrestin2 recruitment (Tango). The test is classed as cell-based. To be noted: Fig_S10e, single replicates.
The target of the next test is DRD2 F1103.28A (Homo sapiens, UniProt P14416, F110A). In words: Gαi/o-mediated cAMP inhibition (GloSensor), mutant. The test is classed as cell-based. Set-up: expressed in transfected cells; host or cells: HEK293T (ATCC CRL-11268).
For test [3], the target named is 320 non-olfactory GPCRs (Homo sapiens, UniProt P30874). In kind it is cell-based. Set-up: GPCRome screening signal at PTGIR / GPCRome screening signal at PTH1R / GPCRome screening signal at PTH2R / GPCRome screening signal at QRFP / GPCRome screening signal at RXFP2 / GPCRome screening signal at RXFP3 / GPCRome screening signal at RXFP4 / GPCRome screening signal at S1PR2 / GPCRome screening signal at S1PR3 / GPCRome screening signal at S1PR4 / GPCRome screening signal at S1PR5 / GPCRome screening signal at SCTR / GPCRome screening signal at SSTR2 / GPCRome screening signal at SSSTR / GPCRome screening signal at SSTR4 / GPCRome screening signal at SSTR5 / GPCRome screening signal at SUCNR1 / GPCRome screening signal at TA1 / GPCRome screening signal at TAAR2 / GPCRome screening signal at TAAR5 / GPCRome screening signal at TAAR6 / GPCRome screening signal at TAAR8 / GPCRome screening signal at TACR1 / GPCRome screening signal at TACR2 / GPCRome screening signal at TACR3 / GPCRome screening signal at TBXA2R / GPCRome screening signal at TSHR / GPCRome screening signal at UTS2R / GPCRome screening signal at VIPR2 / GPCRome screening signal at GPR68 no V2 Tail / GPCRome screening signal at GRM2 / GPCRome screening signal at GRM3: reference not given here. Conditions: receptor SSTR2; Fig_5f, single replicate values.

Test [4] has as its target T1, 320 non-olfactory GPCRs (Homo sapiens, UniProt P29371).
T1 construct: expressed in transfected cells; host or cells: HTLA cells
In kind it is cell-based. Conditions: receptor TACR3; Fig_5f, single replicate values. The arrangement: GPCRome screening signal at PTGIR / GPCRome screening signal at PTH1R / GPCRome screening signal at PTH2R / GPCRome screening signal at QRFP / GPCRome screening signal at RXFP2 / GPCRome screening signal at RXFP3 / GPCRome screening signal at RXFP4 / GPCRome screening signal at S1PR2 / GPCRome screening signal at S1PR3 / GPCRome screening signal at S1PR4 / GPCRome screening signal at S1PR5 / GPCRome screening signal at SCTR / GPCRome screening signal at SSTR2 / GPCRome screening signal at SSSTR / GPCRome screening signal at SSTR4 / GPCRome screening signal at SSTR5 / GPCRome screening signal at SUCNR1 / GPCRome screening signal at TA1 / GPCRome screening signal at TAAR2 / GPCRome screening signal at TAAR5 / GPCRome screening signal at TAAR6 / GPCRome screening signal at TAAR8 / GPCRome screening signal at TACR1 / GPCRome screening signal at TACR2 / GPCRome screening signal at TACR3 / GPCRome screening signal at TBXA2R / GPCRome screening signal at TSHR / GPCRome screening signal at UTS2R / GPCRome screening signal at VIPR2 / GPCRome screening signal at GPR68 no V2 Tail / GPCRome screening signal at GRM2 / GPCRome screening signal at GRM3: reference not given here.

Each structure is given as a SMILES string. Where “and” joins values, the source holds several entries; their conditions need not be identical. Equal values may be shown once.

Chain of DRD5 (P21918 whole entry): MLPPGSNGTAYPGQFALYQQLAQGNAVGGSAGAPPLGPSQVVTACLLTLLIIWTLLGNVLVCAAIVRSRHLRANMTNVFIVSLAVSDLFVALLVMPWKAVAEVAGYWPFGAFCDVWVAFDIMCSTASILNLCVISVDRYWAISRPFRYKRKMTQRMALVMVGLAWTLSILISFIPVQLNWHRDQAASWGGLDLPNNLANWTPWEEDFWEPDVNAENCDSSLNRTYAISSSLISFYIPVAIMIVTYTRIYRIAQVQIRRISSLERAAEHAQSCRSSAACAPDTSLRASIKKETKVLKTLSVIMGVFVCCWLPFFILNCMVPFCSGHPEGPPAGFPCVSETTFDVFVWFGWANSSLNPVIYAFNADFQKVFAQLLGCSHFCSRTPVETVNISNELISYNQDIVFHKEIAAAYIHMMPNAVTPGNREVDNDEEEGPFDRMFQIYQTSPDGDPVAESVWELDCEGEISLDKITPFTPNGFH
Chain of DRD3 (P35462 whole entry): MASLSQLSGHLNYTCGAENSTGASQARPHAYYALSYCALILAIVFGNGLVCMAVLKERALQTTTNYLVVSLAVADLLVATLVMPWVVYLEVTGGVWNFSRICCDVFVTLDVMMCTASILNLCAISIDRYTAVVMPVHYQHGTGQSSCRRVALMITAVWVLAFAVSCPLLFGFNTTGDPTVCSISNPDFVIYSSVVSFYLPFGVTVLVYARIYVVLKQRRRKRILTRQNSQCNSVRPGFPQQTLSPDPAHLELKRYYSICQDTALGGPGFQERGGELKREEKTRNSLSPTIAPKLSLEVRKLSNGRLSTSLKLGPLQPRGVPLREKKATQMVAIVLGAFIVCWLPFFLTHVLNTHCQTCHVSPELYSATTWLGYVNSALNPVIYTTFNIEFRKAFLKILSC
Chain of 320 non-olfactory GPCRs (Homo sapiens, UniProt P30874) (P30874 whole entry): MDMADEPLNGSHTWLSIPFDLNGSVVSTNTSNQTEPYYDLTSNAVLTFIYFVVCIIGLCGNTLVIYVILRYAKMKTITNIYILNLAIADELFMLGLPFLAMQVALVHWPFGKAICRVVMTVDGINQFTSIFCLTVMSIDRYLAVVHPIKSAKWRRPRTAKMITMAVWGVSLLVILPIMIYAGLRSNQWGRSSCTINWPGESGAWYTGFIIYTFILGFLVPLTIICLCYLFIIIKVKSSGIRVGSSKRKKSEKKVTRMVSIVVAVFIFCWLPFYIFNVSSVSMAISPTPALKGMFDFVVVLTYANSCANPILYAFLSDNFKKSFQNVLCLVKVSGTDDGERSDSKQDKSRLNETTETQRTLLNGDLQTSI
Chain of 5HT2A (P28223 whole entry): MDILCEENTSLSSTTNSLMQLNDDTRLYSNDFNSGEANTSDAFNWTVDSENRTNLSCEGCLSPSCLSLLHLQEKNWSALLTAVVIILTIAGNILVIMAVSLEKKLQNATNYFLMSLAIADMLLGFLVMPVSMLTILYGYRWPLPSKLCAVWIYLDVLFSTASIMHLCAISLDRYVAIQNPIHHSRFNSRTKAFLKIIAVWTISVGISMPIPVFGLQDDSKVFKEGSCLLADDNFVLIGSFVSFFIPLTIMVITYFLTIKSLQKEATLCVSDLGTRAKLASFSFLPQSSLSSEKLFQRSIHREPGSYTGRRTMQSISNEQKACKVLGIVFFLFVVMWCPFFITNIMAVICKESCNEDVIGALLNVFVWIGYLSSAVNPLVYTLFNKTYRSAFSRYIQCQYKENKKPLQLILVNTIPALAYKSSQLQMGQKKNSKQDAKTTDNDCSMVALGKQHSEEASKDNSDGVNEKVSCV
Chain of DRD2 (D2 long receptor) (P14416 whole entry): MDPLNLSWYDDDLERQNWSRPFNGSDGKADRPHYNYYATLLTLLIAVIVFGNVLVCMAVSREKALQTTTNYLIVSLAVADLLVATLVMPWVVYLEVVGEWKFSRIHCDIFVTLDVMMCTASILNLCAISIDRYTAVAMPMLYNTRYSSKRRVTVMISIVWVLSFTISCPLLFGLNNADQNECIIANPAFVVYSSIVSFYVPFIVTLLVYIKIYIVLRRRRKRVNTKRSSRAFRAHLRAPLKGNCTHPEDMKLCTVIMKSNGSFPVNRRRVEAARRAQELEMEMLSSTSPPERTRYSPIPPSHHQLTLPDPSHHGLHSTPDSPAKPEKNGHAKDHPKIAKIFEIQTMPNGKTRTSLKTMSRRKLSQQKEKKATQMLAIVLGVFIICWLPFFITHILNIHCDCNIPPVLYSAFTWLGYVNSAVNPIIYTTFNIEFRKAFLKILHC
T1 sequence (P29371 whole entry): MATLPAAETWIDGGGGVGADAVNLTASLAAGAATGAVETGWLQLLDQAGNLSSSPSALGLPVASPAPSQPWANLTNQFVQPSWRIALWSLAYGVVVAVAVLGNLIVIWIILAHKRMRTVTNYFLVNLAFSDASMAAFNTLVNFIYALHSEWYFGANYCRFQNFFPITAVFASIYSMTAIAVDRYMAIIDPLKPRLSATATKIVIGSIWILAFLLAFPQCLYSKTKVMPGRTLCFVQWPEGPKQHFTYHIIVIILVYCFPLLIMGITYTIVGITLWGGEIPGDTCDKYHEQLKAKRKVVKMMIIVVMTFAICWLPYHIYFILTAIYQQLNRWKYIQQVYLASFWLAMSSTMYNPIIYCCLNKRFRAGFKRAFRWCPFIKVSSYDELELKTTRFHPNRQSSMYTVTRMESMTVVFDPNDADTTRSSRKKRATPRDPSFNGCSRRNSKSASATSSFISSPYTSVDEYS
Chain of DRD2 F1103.28A (P14416 whole entry F110A): as the sequence (P14416 whole entry) above, with F110A counted along it

In the case of `CCOc1cccc2cc([C@@H](C)NCC3(O)CCCCC3)oc12` [O4RE6], the EC50 (as a rule, the concentration needed to bring the measured effect to its halfway point) on DRD3 (agonist, read-out: EC50 ± SEM) is 7.12 ± 0.08 nM; at DRD2 (D2 long receptor) (agonist, Gαi/o-mediated cAMP inhibition, read-out: EC50 ± SEM), 0.45 ± 0.05 nM; at DRD2 F1103.28A, greater than 10000 nM. Besides, the “G protein agonist activity” value is reported as “partial agonist” on DRD3 and “full agonist” at DRD2 (D2 long receptor) (cAMP inhibition). Besides, the Emax (commonly the size of the effect at its maximum, as opposed to the concentration needed) on DRD3 (read-out: Emax relative to quinpirole response) worked out at 52.4%; at DRD2 (D2 long receptor) (HEK-293T, read-out: Emax relative to quinpirole response, cAMP inhibition), 94.5%. Also, the “response, single replicates of the concentration-response curve” value (“response, single replicates” below) in test [1] (Log[Drug] -6.52) was 15.4121; in test [1] (Log[Drug] -7), -9.449 and 43.8621 and 11.6211 and 7.472 and -0.3671 and 7.014 and 9.027 and 5.062 and -2.318; in test [1] (Log[Drug] -7.52) it was 25.9192 and 27.8404 and -0.5503 and -21.2455 and 4.046 and 14.5317 and -8.748 and -4.947 and 16.7319; in test [1] (Log[Drug] -8), 2.165 and -8.081 and -1.811 and 5.963 and -1.683 and -1.147 and 3.049 and 7.499 and 13.7356; in test [1] (Log[Drug] -8.52), -5.579 and -1.044 and 8.071 and 25.4179 and -14.3504 and -12.3048 and 9.427 and 1.454 and -6.523; in test [1] (Log[Drug] -9) it was 17.8788 and 11.459 and -7.1 and 19.8102 and 1.922 and -5.946 and -1.184 and 8.604 and 6.934. The “response, single replicates” value was -10.7926 and -6.0806 and -1.59 and 6.349 and 24.5524 and -6.94 and -0.1308 and 12.3434 and 15.3584 in test [1] (Log[Drug] -9.52); 15.7757 and 1.351 and 2.221 and 21.6342 and 13.8951 and -8.936 and 0.1938 and 1.6143 and 8.83 in test [1] (Log[Drug] -10); 10.0241 and -11.69 and 6.115 and -3.242 and -2.048 and 6.485 and 2.339 and 5.815 and 3.938 in test [1] (Log[Drug] -10.52); 9.617 and 2.873 and 5.027 and 13.6018 and -3.471 and 16.985 and 36.4073 and 2.626 and 1.374 in [1] (Log[Drug] -11); 17.0328 and 12.1627 and -8.18 and -20.709 and -16.6678 and 9.0957 and -0.3236 and 13.7874 and 20.984 in [1] (Log[Drug] -11.52); -3.669 and 13.7874 and -0.578 and 18.9662 and 35.9393 and -1.197 and 0.5748 and 17.3951 and 3.035 in test [1] (Log[Drug] -12). Moreover, the “response, single replicates” value in [2] (Log[Drug] -11.52) is 7.932 and 1.922 and 1.39 and -3.959 and 2.237 and 14.8084 and -5.287 and -16.0867 and 8.333; in test [2] (Log[Drug] -12), 7.248 and 11.8909 and -3.039 and -4.844 and 11.7663 and -11.164 and 10.085 and 0.6399 and 4.277. Also, the “Fig_S10k dose-response, drug alone (agonist mode), β-arrestin2 recruitment” value at 5HT2A (Log[Drug] -6.52) is -0.1908; on 5HT2A (Log[Drug] -7) it was 0.697 and 0.4035 and 0.09538 and 0.6532 and -1.18 and 3.874 and 0.7119 and 4.575 and 2.4436; on 5HT2A (Log[Drug] -7.52), 0.4035 and -0.7777 and -0.1834 and -1.703 and -0.8871 and -1.1926 and 2.795 and 3.208 and 1.294; on 5HT2A (Log[Drug] -8) it was 1.5774 and 2.458 and -0.4916 and -0.4094 and -2.089 and 0.5329 and 11.4772 and 3.9492 and 2.4436; at 5HT2A (Log[Drug] -8.52), -0.8437 and 0.3668 and 0.9905 and -1.355 and 3.003 and -0.7312 and 3.002 and 2.824 and 3.026; on 5HT2A (Log[Drug] -9), 16.8085 and 6.2069 and -0.2128 and 11.6986 and 0.5297 and -1.349 and 1.8808 and 2.833 and 2.6312. Further, the “Fig_S10k dose-response, drug alone (agonist mode), β-arrestin2 recruitment” value was -0.5503 and 0.3742 (2×) and -0.2437 and 18.2855 and 12.0983 and 1.862 and 3.213 and 3.608 at 5HT2A (Log[Drug] -9.52); 0.4035 and 2.4358 and 3.331 and 0.1365 and -1.683 and 9.281 and 2.751 and 3.406 and 1.477 on 5HT2A (Log[Drug] -10); -0.4916 and 0.9758 and -0.7997 and 1.29 and 4.65 and 10.4637 and 6.306 and 3.973 and 2.054 at 5HT2A (Log[Drug] -10.52); 2.45 and 2.135 and 3.331 and -1.706 and -2.372 and 0.351 and 0.3319 and 2.848 and 1.106 at 5HT2A (Log[Drug] -11); 0.3302 and 0.9611 and 1.255 and 6.574 and 5.31 and 2.18 and 0.7408 and 1.698 and 1.477 at 5HT2A (Log[Drug] -11.52); 0.3962 and 4.798 and 3.859 and -0.7864 and -1.57 and 2.356 and 1.337 and 0.7456 and 3.045 on 5HT2A (Log[Drug] -12). Further, the “β-arrestin2 recruitment response, agonist mode (normalized)” value on DRD5 (Log[Drug] -6.52) was 3.307; on DRD5 (Log[Drug] -7) it was 3.556 and 3.7037 and 0.3329 and 4.539 and 1.619 and 0.7476 and 0.7305 and 1.517 and 0.06412; on DRD5 (Log[Drug] -7.52), 3.831 and -0.7608 and 1.183 and 2.699 and 1.3394 and 0.2373 and -0.5855 and 0.1756 and 0.6817; on DRD5 (Log[Drug] -8) it was -0.354 and 4.126 and 1.796 and 1.252 and 1.785 and 1.286 and -0.552 and 0.7932 and 1.175; at DRD5 (Log[Drug] -8.52), 4.945 and 4.734 and 2.002 and 0.8283 and 1.858 and 0.3616 and -0.1241 and 0.7932 and 0.1701; at DRD5 (Log[Drug] -9) it was -0.5336 and 1.162 and 2.8425 and 2.532 and 0.2334 and 1.094 and -1.004 and 0.5702 and 1.069. For the same compound, the “β-arrestin2 recruitment response, agonist mode (normalized)” value at DRD5 (Log[Drug] -9.52) was 1.189 and -0.1004 and 3.714 and 0.519 and 0.6511 and 2.841 and 3.8684 and 0.6677 and 1.209; on DRD5 (Log[Drug] -10) it was 1.189 and -0.7027 and -2.2032 and 1.378 and 0.875 and 0.4502 and -0.1213 and -0.3875 and 2.24; at DRD5 (Log[Drug] -10.52), 0.7608 and -0.5125 and 1.416 and 1.597 and 1.308 and 1.974 and 3.531 and 1.161 and 0.5451; at DRD5 (Log[Drug] -11), -0.3117 and 1.606 and -1.358 and 0.3916 and 1.977 and 2.8 and -0.009758 and 3.703 and 3.711; at DRD5 (Log[Drug] -11.52), -1.77 and 3.926 and 0.7503 and 1.5356 and 0.746 and 0.6788 and -0.4001 and 8.516 and 5.095; on DRD5 (Log[Drug] -12) it was -0.9088 and 2.256 and -1.342 and 2.237 and 0.341 and 1.2057 and -1.023 and 0.1729 and 0.8517.

For `CCOc1ccccc1CCC(C)NCC1(O)CCCCC1.Cl` (racemic) [Fig_5f], on 320 non-olfactory GPCRs [3], the “GPCRome screening signal at SSTR2” value is 1.092 and 1.759 and 1.157 and 0.8246. For the same compound, the “GPCRome screening signal at TACR3” value at 320 non-olfactory GPCRs [4] is 1.15 and 1.023 and 1.051 and 0.8328.
